This is an account of results in patent publication US20080234286A1 (CHEMAGIS Ltd., priority 2007, published 2008).

Assay type in all cases: physicochemical
The nature of data set [1]: Storage stability of packed compressed tablets (amorphous form, purity by HPLC). An excerpt:
The term “remains stable”, as defined herein, refers to lack of formation of impurities, while being stored as described herein (see Example 11).
The compressed tablets were packed in a packing comprising internal sealed polyethylene bag, containing the tablets, which was inserted into a middle opaque (e.g., black) polyethylene bag, which was then sealed, wherein the packaging was sealed effectively to prevent penetration of humidity and/or oxygen. The polyethylene bag was packed and sealed in a laminated aluminum bag containing silica.
The samples were packed in the above-mentioned packaging and stored at room temperate and at 40° C. Samples were withdrawn periodically after 5, 8, 13 and 30 days and the purity of the withdrawn material was checked by HPLC.

Data set [2] is described as follows: Retention of amorphous form after compressing at high pressure, checked by X-ray diffractometer. Particulars: about 7.5 tons/cm^2 for 15 minutes. The protocol:
X-ray diffraction data were acquired using a PHILIPS X-ray diffractometer model PW1050-70. System description: Kα1=1.54178 Å, voltage 40 kV, current 28 mA, diversion slit=1°, receiving slit=0.2 mm, scattering slit=1° with a Graphite monochromator. Measurements of 2θ values typically are accurate to within ±0.2 degrees. Experiment parameters: pattern measured between 2θ=3° and 2θ=30° with 0.05° increments; count time was 0.5 second per increment. […]
The four samples, marked as 1-4, were checked by X-ray diffractometer after compressing and the results are detailed in Table 5.

Data set [3] is described as follows: Water content by Karl Fischer titration.
Procedure: The water content measurements were carried out using a Karl Fischer Titrator (Mettler Toledo Model DL-53), according to standard procedures.
A short description of data set [4]: Physical nature / hygroscopicity of the obtained solid (observation). Particulars: as obtained after drying.
The nature of data set [5]: Bulk and tapped density (Vankel tapped density tester).
Procedure: Bulk and tapped densities were measured using Varian's Vankel tapped density tester model 50-2300.

Structures are written as SMILES. Where a name gives a salt, the structure may show the parent alone.

Regarding `Cc1ccc(NC(=O)c2ccc(CN3CCN(C)CC3)cc2)cc1Nc1nccc(-c2cccnc2)n1` [amorphous imatinib mesylate, imatinib mesylate], the “stability and amorphous form on storage” value is “remains stable and maintains its amorphous form” in data set [1] (stored at 25° C. for at least a month); “remains stable and maintains its amorphous form” in data set [1] (stored at 40° C. for at least a month). Besides, the “solid form after being compressed” value in data set [2] was “remains in amorphous form”.

Take `Cc1ccc(NC(=O)c2ccc(CN3CCN(C)CC3)cc2)cc1Nc1nccc(-c2cccnc2)n1` [Example 8, imatinib mesylate]: the “% water in the product” value in data set [3] came to 3.8%.

Regarding `Cc1ccc(NC(=O)c2ccc(CN3CCN(C)CC3)cc2)cc1Nc1nccc(-c2cccnc2)n1` [Example 3, imatinib mesylate], in data set [3], the “% water in the product” value worked out at 4.1%.

For the molecule `Cc1ccc(NC(=O)c2ccc(CN3CCN(C)CC3)cc2)cc1Nc1nccc(-c2cccnc2)n1` [Example 10, imatinib mesylate], the “% water in the product” value in data set [3] is on record as 3.2%.

`Cc1ccc(NC(=O)c2ccc(CN3CCN(C)CC3)cc2)cc1Nc1nccc(-c2cccnc2)n1` [Example 1, imatinib mesylate]: the “physical nature of the obtained solid (hygroscopicity, flow)” value (from here on “physical nature of the obtained solid”) in data set [4] is “non-hygroscopic and free-flowing”. In addition, the “% water in the product” value in data set [3] amounted to 4.1%.

Regarding `Cc1ccc(NC(=O)c2ccc(CN3CCN(C)CC3)cc2)cc1Nc1nccc(-c2cccnc2)n1` [Example 4, imatinib mesylate], the “% water in the product” value in data set [3] is reported as 3.7%.

With `Cc1ccc(NC(=O)c2ccc(CN3CCN(C)CC3)cc2)cc1Nc1nccc(-c2cccnc2)n1` [Example 6, imatinib mesylate], the “% water in the product” value in data set [3] was found to be 3.8%.

For the molecule `Cc1ccc(NC(=O)c2ccc(CN3CCN(C)CC3)cc2)cc1Nc1nccc(-c2cccnc2)n1` [Reference Example 1, imatinib mesylate, reference compound], in data set [4], the “physical nature of the obtained solid” value is “glassy deliquescent material”. Also, the “% water in the product” value in data set [3] was found to be 2.2%.

For `Cc1ccc(NC(=O)c2ccc(CN3CCN(C)CC3)cc2)cc1Nc1nccc(-c2cccnc2)n1` [Example 7, imatinib mesylate], the “% water in the product” value in data set [3] was 4.3%.

In data set [5], `Cc1ccc(NC(=O)c2ccc(CN3CCN(C)CC3)cc2)cc1Nc1nccc(-c2cccnc2)n1` [Example 2, imatinib mesylate] registered a bulk density of 0.29 g/mL and a tapped density of 0.39 g/mL.

Turning to `Cc1ccc(NC(=O)c2ccc(CN3CCN(C)CC3)cc2)cc1Nc1nccc(-c2cccnc2)n1` [Reference Example 2, imatinib mesylate, reference compound], the “physical nature of the obtained solid” value in data set [4] is “very electrostatic and tended to agglomerate”. Further, in data set [3], the “% water in the product” value is recorded as 1.7%.

Consider `Cc1ccc(NC(=O)c2ccc(CN3CCN(C)CC3)cc2)cc1Nc1nccc(-c2cccnc2)n1` [Example 9, imatinib mesylate], for which the “% water in the product” value in data set [3] is 4.9%.

For the molecule `Cc1ccc(NC(=O)c2ccc(CN3CCN(C)CC3)cc2)cc1Nc1nccc(-c2cccnc2)n1` [Example 5, imatinib mesylate], in data set [3], the “% water in the product” value worked out at 4.8%.
